Test system: Endogenous Huntingtin Protein
Experiment: Endogenous Huntingtin Protein Assay (ELISA-based MSD electrochemiluminescence)
Type: cell-based
Details: Table 2; MSD plates coated with MW1 (expanded polyglutamine) or MAB2166 capture antibody; "inactive" = result above the detection limit of the assay
Method in brief: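 MSD electrochemiluminescence sandwich ELISA: capture with MW1 (expanded polyQ) or MAB2166 at 1 µg/mL, samples incubated overnight at 4 °C. Detection by rabbit mAb #56565 then SULFO-TAG anti-rabbit antibody, each 0.25 µg/mL for 1 h at room temperature, read in buffer T on SI 6000 imager.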

Row | SMILES | IC50
1 | COC[C@H]1CN(c2ncc(-c3ccc(-c4cn[nH]c4)cc3O)nn2)CCN1 [Cpd 53, 2-{3-[(3R)-3-(methoxymethyl)piperazin-1-yl]-1,2,4-triazin-6-yl}-5-(1H-pyrazol-4-yl)phenol] | 435 nM
2 | CC(C)[C@H]1CN(c2ncc(-c3ccc(-n4nccn4)cc3O)nn2)CCN1 [Cpd 154, 2-{3-[(3S)-3-(propan-2-yl)piperazin-1-yl]-1,2,4-triazin-6-yl}-5-(2H-1,2,3-triazol-2-yl)phenol] | 18.7 nM
3 | Cc1cn2cc(-c3ccc(-c4cnc(N5CCN(C)[C@H](C)C5)nn4)c(O)c3)cc(F)c2n1 [Cpd 107, 2-{3-[(3R)-3,4-dimethylpiperazin-1-yl]-1,2,4-triazin-6-yl}-5-(8-fluoro-2-methylimidazo[1,2-a]pyridin-6-yl)phenol] | 16.8 nM
4 | Cc1nc2cnc(-c3ccc(-c4cnc(N5CCN[C@@H](C(C)C)C5)nn4)c(O)c3)cn2n1 [Cpd 91, 5-(2-methyl[1,2,4]triazolo[1,5-a]pyrazin-6-yl)-2-{3-[(3S)-3-(propan-2-yl)piperazin-1-yl]-1,2,4-triazin-6-yl}phenol] | 7.3 nM
5 | CC(C)[C@H]1CN(c2ncc(-c3ccc(-c4cnn5c4CCC5)cc3O)nn2)CCN1 [Cpd 278, 5-(5,6-dihydro-4H-pyrrolo[1,2-b]pyrazol-3-yl)-2-{3-[(3S)-3-(propan-2-yl)piperazin-1-yl]-1,2,4-triazin-6-yl}phenol] | 8.3 nM
6 | Cc1cn2nc(-c3ccc(-c4cnc(N5C[C@@H](C)N(C)[C@@H](C)C5)nn4)c(O)c3)cc(C#N)c2n1 [Cpd 108, 6-(3-hydroxy-4-{3-[(3R,5S)-3,4,5-trimethylpiperazin-1-yl]-1,2,4-triazin-6-yl]phenyl)-2-methylimidazo[1,2-b]pyridazine-8-carbonitrile] | 19.8 nM
7 | CC(C)(C)[C@H]1CN(c2ncc(-c3ccc(-c4cn[nH]c4)cc3O)nn2)CCN1 [Cpd 16, 2-{3-[(3S)-3-tert-butylpiperazin-1-yl]-1,2,4-triazin-6-yl}-5-(1H-pyrazol-4-yl)phenol] | 13.2 nM
8 | C[C@@H]1CN(c2ncc(-c3ccc(-c4ncns4)cc3O)nn2)C[C@H](C2CC2)N1 (single isomer, unassigned) [Cpd 269, 2-{3-[(3S,5R)-3-cyclopropyl-5-methylpiperazin-1-yl]-1,2,4-triazin-6-yl}-5-(1,2,4-thiadiazol-5-yl)phenol or 2-{3-[(3R,5S)-3-cyclopropyl-5-methylpiperazin-1-yl]-1,2,4-triazin-6-yl}-5-(1,2,4-thiadiazol-5-yl)phenol] | 53.9 nM
9 | CC1(C)CN(c2ncc(-c3ccc(-c4cn[nH]c4)cc3O)nn2)CCN1 [Cpd 56, 2-[3-(3,3-dimethylpiperazin-1-yl)-1,2,4-triazin-6-yl]-5-(1H-pyrazol-4-yl)phenol] | 654 nM
10 | CCC[C@H]1CN(c2ncc(-c3ccc(-c4cn[nH]c4)cc3O)nn2)CCN1 [Cpd 37, 2-{3-[(3S)-3-propylpiperazin-1-yl]-1,2,4-triazin-6-yl}-5-(1H-pyrazol-4-yl)phenol] | 50.7 nM
11 | CC(C)C1CN(c2ncc(-c3ccc(-c4cc(F)c5nn(C)cc5c4)cc3O)nn2)CCN1 (centres unmarked) [Cpd 71, 5-(7-fluoro-2-methyl-2H-indazol-5-yl)-2-{3-[3-(propan-2-yl)piperazin-1-yl]-1,2,4-triazin-6-yl}phenol] | 4 nM
12 | CC(C)[C@H]1CN(c2ncc(-c3ccc(-c4cnn5cccnc45)cc3O)nn2)CCN1 [Cpd 243, 2-{3-[(3S)-3-(propan-2-yl)piperazin-1-yl]-1,2,4-triazin-6-yl}-5-(pyrazolo[1,5-a]pyrimidin-3-yl)phenol] | 218 nM
13 | CC(C)C1CN(c2ncc(-c3ccc(-c4cnn(C)c4)cc3O)nn2)CCN1 (centres unmarked) [Cpd 35, 5-(1-methyl-1H-pyrazol-4-yl)-2-{3-[3-(propan-2-yl)piperazin-1-yl]-1,2,4-triazin-6-yl}phenol] | 46.1 nM
14 | C[C@@H]1CN(c2ncc(-c3ccc(-n4nccn4)cc3O)nn2)C[C@H](C2CCC2)N1 [Cpd 237, 2-{3-[(3S,5R)-3-cyclobutyl-5-methylpiperazin-1-yl]-1,2,4-triazin-6-yl}-5-(2H-1,2,3-triazol-2-yl)phenol] | 104 nM
15 | Cc1cc(-c2ccc(-c3cnc(N4CCN[C@@H](C(C)C)C4)nn3)c(O)c2)cc2cn(C)nc12 [Cpd 140, 5-(2,7-dimethyl-2H-indazol-5-yl)-2-{3-[(3S)-3-(propan-2-yl)piperazin-1-yl]-1,2,4-triazin-6-yl}phenol] | 5.8 nM
16 | Cc1nc2cnc(-c3ccc(-c4cnc(N5C[C@@H](C)N[C@@H](C)C5)nn4)c(O)c3)cn2n1 [Cpd 106, 2-{3-[(3R,5S)-3,5-dimethylpiperazin-1-yl]-1,2,4-triazin-6-yl}-5-(2-methyl[1,2,4]triazolo[1,5-a]pyrazin-6-yl)phenol] | 16.5 nM
17 | Cc1cn2nc(-c3ccc(-c4cnc(N5CCN(C)CC5)nn4)c(O)c3)ccc2n1 [Cpd 82, 5-(2-methylimidazo[1,2-b]pyridazin-6-yl)-2-[3-(4-methylpiperazin-1-yl)-1,2,4-triazin-6-yl]phenol] | 5.5 nM

Row | SMILES | IC50
18 | Oc1cc(-c2c[nH]nc2F)ccc1-c1cnc(N2CCN[C@@H](C3CC3)C2)nn1 [Cpd 1, 2-{3-[(3S)-3-cyclopropylpiperazin-1-yl]-1,2,4-triazin-6-yl}-5-(3-fluoro-1H-pyrazol-4-yl)phenol] | 2.1 nM
19 | C[C@@H]1CN(c2ncc(-c3ccc(-c4cn[nH]c4)cc3O)nn2)C[C@H](C2CCC2)N1 [Cpd 231, 2-{3-[(3S,5R)-3-cyclobutyl-5-methylpiperazin-1-yl]-1,2,4-triazin-6-yl}-5-(1H-pyrazol-4-yl)phenol] | 21.9 nM
20 | C[C@H]1CN(c2ncc(-c3ccc(-c4cn[nH]c4F)cc3O)nn2)C[C@@H](C2CC2)N1 [Cpd 215, 2-{3-[(3R,5S)-3-cyclopropyl-5-methylpiperazin-1-yl]-1,2,4-triazin-6-yl}-5-(5-fluoro-1H-pyrazol-4-yl)phenol] | 114 nM
21 | Cc1ncn2cc(-c3ccc(-c4cnc(N5CCN[C@@H](C6CC6)C5)nn4)c(O)c3)ccc12 [Cpd 194, 2-{3-[(3S)-3-cyclopropylpiperazin-1-yl]-1,2,4-triazin-6-yl}-5-(1-methylimidazo[1,5-a]pyridin-6-yl)phenol] | 19.3 nM
22 | Oc1cc(-c2cn[nH]c2)ccc1-c1cnc(N2CCNC(C3CC3(F)F)C2)nn1 (centres unmarked) [Cpd 36, 2-{3-[3-(2,2-dilluorocyclopropyl)piperazin-1-yl]-1,2,4-triazin-6-yl}-5-(1H-pyrazol-4-yl)phenol] | 47.7 nM
23 | Cn1nnc2cnc(-c3ccc(-c4cnc(N5CCN[C@@H](C6CC6)C5)nn4)c(O)c3)cc21 [Cpd 174, 2-{3-[(3S)-3-cyclopropylpiperazin-1-yl]-1,2,4-triazin-6-yl}-5-(1-methyl-1H-[1,2,3]triazolo[4,5-c]pyridin-6-yl)phenol] | 607 nM
24 | COc1cc(-c2ccc(-c3cnc(N4C[C@@H](C)N[C@@H](C5CC5)C4)nn3)c(O)c2)nc(OC)n1 [Cpd 219, 2-{3-[(3S,5R)-3-cyclopropyl-5-methylpiperazin-1-yl]-1,2,4-triazin-6-yl}-5-(2,6-dimethoxypyrimidin-4-yl)phenol] | 13.7 nM
25 | C=C[C@H]1CN(c2ncc(-c3ccc(-c4cn[nH]c4)cc3O)nn2)C[C@@H](C)N1 [Cpd 249, 2-{3-[(3S,5R)-3-ethenyl-5-methylpiperazin-1-yl]-1,2,4-triazin-6-yl]-5-(1H-pyrazol-4-yl)phenol] | 319 nM
26 | CC(C)[C@H]1CN(c2ncc(-c3ccc(-c4nc(C(F)F)cs4)cc3O)nn2)CCN1 [Cpd 186, 5-[4-(difluoromethyl)-1,3-thiazol-2-yl]-2-{3-[(3S)-3-(propan-2-yl)piperazin-1-yl]-1,2,4-triazin-6-yl}phenol] | 77.7 nM
27 | [2H]C([2H])([2H])n1cc(-c2ccc(-c3cnc(N4CCNC(C(C)(C)O)C4)nn3)c(O)c2)cn1 (centres unmarked) [Cpd 19, 2-{3-[3-(2-hydroxypropan-2-yl)piperazin-1-yl]-1,2,4-triazin-6-yl}-5-[1-(^2H3)methyl-1H-pyrazol-4-yl]phenol] | 17.1 nM
28 | CC[C@H]1CN(c2ncc(-c3ccc(-c4cn[nH]c4)cc3O)nn2)C[C@@H](C)N1 (racemic) [Cpd 148, 2-{3-[rac-(3S,5R)-3-ethyl-5-methylpiperazin-1-yl]-1,2,4-triazin-6-yl}-5-(1H-pyrazol-4-yl)phenol] | 53.4 nM
29 | Oc1cc(-c2cn[nH]c2)ccc1-c1cnc(N2CCN3C[C@H](O)C[C@H]3C2)nn1 [Cpd 59, (7R,8aS)-2-{6-[2-hydroxy-4-(1H-pyrazol-4-yl)phenyl]-1,2,4-triazin-3-yl}octahydropyrrolo[1,2-a]pyrazin-7-ol] | 876 nM
30 | CC(C)(C)[C@H]1CN(c2ncc(-c3ccc(-c4ncsn4)cc3O)nn2)CCN1 [Cpd 258, 2-{3-[(3S)-3-tert-butylpiperazin-1-yl]-1,2,4-triazin-6-yl}-5-(1,2,4-thiadiazol-3-yl)phenol] | 10.8 nM
31 | CC(C)[C@H]1CN(c2ncc(-c3ccc(-c4nc(C#N)cs4)cc3O)nn2)CCN1 [Cpd 273, 2-(3-hydroxy-4-{3-[(3S)-3-(propan-2-yl)piperazin-1-yl]-1,2,4-triazin-6-yl}phenyl)-1,3-thiazole-4-carbonitrile] | 646 nM
32 | Oc1cc(-c2ncsn2)ccc1-c1cnc(N2CCN[C@@H](C3CC3)C2)nn1 [Cpd 213, 2-{3-[(3S)-3-cyclopropylpiperazin-1-yl]-1,2,4-triazin-6-yl]-5-(1,2,4-thiadiazol-3-yl)phenol] | 7.7 nM
33 | [2H]C([2H])([2H])n1cc(-c2ccc(-c3cnc(N4CCNC(C(C)C)C4)nn3)c(O)c2)cn1 (centres unmarked) [Cpd 41, 5-[1-(^2H3)methyl-1H-pyrazol-4-yl]-2-{3-[3-(propan-2-yl)piperazin-1-yl]-1,2,4-triazin-6-yl}phenol] | 110 nM
34 | Oc1cc(-c2c[nH]nc2F)ccc1-c1cnc(N2CCNC3(CC3)C2)nn1 [Cpd 57, 2-[3-(4,7-diazaspiro[2.5]octan-7-yl)-1,2,4-triazin-6-yl]-5-(3-fluoro-1H-pyrazol-4-yl)phenol] | 668 nM

Same assay, conditions: Table 3; selected compounds from WO/2019/191229 A1, same MSD assay

Row | SMILES | IC50
35 | CC1CN(c2ncc(-c3ccc(-c4cnn(C)c4)cc3O)nn2)CC(C)N1 (centres unmarked) [WO/2019/191229 A1 Cpd 263, reference compound] | 352 nM
